# Assay results reported in article PMC3111206, “Phase I study of PD 0332991, a cyclin-dependent kinase inhibitor, administered in 3-week cycles (Schedule 2/1)” (British Journal of Cancer, 2011).
# Like-named read-outs stand apart in the source and are kept apart here.
# Tests used:
# [1] = QTc interval from triplicate electrocardiograms; type: in vivo, human; settings: Fridericia's correction
# Experimental: Safety was assessed at baseline, at regular intervals throughout the study, and within 1 week following treatment discontinuation by recording AEs, haematological and biochemical parameters, and physical status (including ECOG performance status). Adverse event severity was graded using the National Cancer Institute Common Terminology Criteria for Adverse Events, version 3.0 ([Trotti et al, 2003]). Triplicate electrocardiograms (ECGs) ∼2 min apart were taken at baseline, 3 h post-dose on days 1, 8 and 15 of cycle 1, and on day 15 of subsequent cycles for up to six cycles.
# [2] = Plasma pharmacokinetics, single dose and steady state; type: in vivo, human; settings: for AUC(0-t): read-out: AUC(0–10), mean (%CV)
# Experimental: Samples for measurement of PK parameters were collected from all patients pre-dose and at intervals up to 10 h post-dose following a single administration (cycle one, day 1) and after repeated dosing (cycle 1, day 8). In cycle 1, three additional blood samples for PK analysis were collected during the 7-day interval without treatment on days 15, 16 and 17. In addition a sample was collected from patients in the expanded MTD cohort 24 h post-dose on cycle 1, day 1. Urine PK assessments (0–10 h post-dose) were carried out on cycle 1, day 1 in patients in the expanded cohort. Blood draws for PK assessment were also obtained at the same time as ECG testing at the projected time-to-first occurrence of the maximum observed plasma concentration (Cmax). Individual area under the concentration–time curve (AUC) values estimated based on dose and individual apparent clearance (CL/F) was obtained from population PK modelling. Additional PK parameters assessed were the time-to-first occurrence of Cmax (Tmax), the apparent volume of distribution during the terminal phase (Vz/F), the terminal elimination half-life (t1/2) and the drug accumulation ratio (Rac).
# Pharmacokinetics parameters were determined using non-compartmental analyses (WinNonLin version 4.1; Pharsight, Mountain View, CA, USA). Descriptive statistics for PK parameters were summarised by dosing group, day and cycle.
# [3] = test system: Rb-positive solid tumours or non-Hodgkin's lymphoma; test: Tumour response by RECIST v1.0; type: in vivo, human
# Experimental: Tumour measurements derived from computed tomography or magnetic resonance imaging scans were obtained at baseline, after every 2 cycles during the study, and at the end of treatment. Tumour responses were evaluated based on Response Evaluation Criteria in Solid Tumors, version 1.0 ([Therasse et al, 2000]).
# [4] = test system: Rb-positive human xenograft models; set-up: method as in Fry et al, 2004; settings: several Rb-positive human xenograft models in vivo; ref Fry et al, 2004; cited from earlier work
# [5] = test system: Rb-negative cell lines; set-up: method as in Fry et al, 2004; settings: ref Fry et al, 2004, cited from earlier work
# [6] = Phase I dose escalation: dose-limiting toxicities, MTD and RP2D (Schedule 2/1); type: in vivo
# Text: This was a phase I, dose-finding, open-label, non-comparative study of PD 0332991 in patients with Rb-positive solid tumours or non-Hodgkin's lymphoma (NHL). […] On the basis of the low frequency of Rb expression in small-cell lung cancer and […] ([Lee et al, 1987]; [Yokota et al, 1988]; [Shimizu et al, 1994]), patients with both tumour types were excluded from the trial.
# The primary objectives of this study were to establish the safety profile of PD 0332991 given in a 3-week treatment cycle by identifying dose-limiting toxicities (DLTs), the maximum administered dose and the maximum tolerated dose (MTD), and to establish the recommended dose for phase II studies (RP2D). Secondary objectives included characterisation of single-dose and steady-state pharmacokinetics (PKs) of oral PD 0332991 and evaluation of preliminary antitumour activity.
# Cohorts of patients received escalating doses of PD 0332991 given daily for 2 weeks, followed by 1 week off treatment (Schedule 2/1). Treatment cycles were repeated until the occurrence of disease progression, unacceptable toxicity or withdrawal of consent.
# Three to four evaluable patients were initially enrolled per dose-escalation cohort, and the cohort expanded to six evaluable patients, if a DLT occurred during the first treatment cycle. […] The MTD was defined as the highest dose level for which the incidence of first-cycle DLT was <2/6. Cohorts receiving the MTD were expanded to include a minimum of 12 patients. […]
smiles,measurement,setting,value
CC(=O)c1c(C)c2cnc(Nc3ccc(N4CCNCC4)cn3)nc2n(C2CCCC2)c1=O [PD 0332991],Patients with maximum on-treatment QTc ⩾500-msec or >30-msec increase from baseline,[1],no patients
same,"Cmax, mean (%CV)","[2]; human, in vivo, 225 mg",186 (64) ng ml^−1
same,"Tmax, median (range)","[2]; human, in vivo, 225 mg",4.5 (1.0–7.0) h
same,Cmax,"[2]; human, in vivo, 225 mg, Cmax, mean (%CV)",104 ng/mL
same,Tmax,"[2]; human, in vivo, 225 mg, Tmax, median (range)",4 h
same,AUC(0-t),"[2]; human, plasma, oral, 100 mg, plasma, 100 mg QD, Day 1 (n=2 per footnote a)",333 ng·h/mL
same,Cmax,"[2]; human, plasma, oral, 100 mg, plasma, 100 mg QD, Day 1 (n=3), read-out: Cmax, mean (%CV)",44 ng/mL
same,Tmax,"[2]; human, plasma, oral, 100 mg, plasma, 100 mg QD, Day 1 (n=3), read-out: Tmax, median (range)",4 h
same,AUC(0-t),"[2]; human, plasma, oral, 100 mg, plasma, 100 mg QD, Day 8 (n=2 per footnote a)",433 ng·h/mL
same,Cmax,"[2]; human, plasma, oral, 100 mg, plasma, 100 mg QD, Day 8 (n=3), read-out: Cmax, mean (%CV)",58 ng/mL
same,Tmax,"[2]; human, plasma, oral, 100 mg, plasma, 100 mg QD, Day 8 (n=3), read-out: Tmax, median (range)",4 h
same,AUC(0-t),"[2]; human, plasma, oral, 150 mg, plasma, 150 mg QD, Day 1 (n=2 per footnote a)",622 ng·h/mL
same,Cmax,"[2]; human, plasma, oral, 150 mg, plasma, 150 mg QD, Day 1 (n=4), read-out: Cmax, mean (%CV)",78 ng/mL
same,Tmax,"[2]; human, plasma, oral, 150 mg, plasma, 150 mg QD, Day 1 (n=4), read-out: Tmax, median (range)",6 h
same,AUC(0-t),"[2]; human, plasma, oral, 150 mg, plasma, 150 mg QD, Day 8 (n=3)",1600 ng·h/mL
same,Cmax,"[2]; human, plasma, oral, 150 mg, plasma, 150 mg QD, Day 8 (n=3), read-out: Cmax, mean (%CV)",194 ng/mL
same,Tmax,"[2]; human, plasma, oral, 150 mg, plasma, 150 mg QD, Day 8 (n=3), read-out: Tmax, median (range)",7 h
same,AUC(0-t),"[2]; human, plasma, oral, 200 mg, plasma, 200 mg QD, Day 1 (n=19 per footnote a)",525 ng·h/mL
same,Cmax,"[2]; human, plasma, oral, 200 mg, plasma, 200 mg QD, Day 1 (n=20), read-out: Cmax, mean (%CV)",81 ng/mL
same,Tmax,"[2]; human, plasma, oral, 200 mg, plasma, 200 mg QD, Day 1 (n=20), read-out: Tmax, median (range)",5.7 h
same,AUC(0-t),"[2]; human, plasma, oral, 200 mg, plasma, 200 mg QD, Day 8 (n=8)",1400 ng·h/mL
same,Cmax,"[2]; human, plasma, oral, 200 mg, plasma, 200 mg QD, Day 8 (n=8), read-out: Cmax, mean (%CV)",174 ng/mL
same,Tmax,"[2]; human, plasma, oral, 200 mg, plasma, 200 mg QD, Day 8 (n=8), read-out: Tmax, median (range)",4 h
same,Vd/F,"[2]; human, plasma, oral, steady state, 200-mg QD cohort, read-out: Vz/F (apparent volume of distribution), mean",3240 L
same,half-life,"[2]; human, plasma, oral, steady state, 200-mg QD cohort, read-out: t1/2 (terminal elimination half-life), mean (converted)",26.7 h
same,"CL/F, mean","[2]; steady state, 200-mg QD cohort",88.5 l per hour
same,Patients with partial response (PR),"[3]; 31 evaluable patients, testicular cancer, 200 mg QD, Schedule 2/1",one
same,Duration of stable disease,"[3]; one patient with angiomyxoma, 200-mg QD cohort",19 cycles
same,Duration of stable disease,"[3]; one patient with liposarcoma, 100-mg QD cohort",11 cycles
same,Duration of stable disease,"[3]; one patient with liposarcoma, 225-mg QD cohort",≥ 23 cycles
same,Effect on tumour growth,[4],significantly reduces tumour growth and leads to tumour regression
same,Activity against Rb-negative cell lines,[5]; in vitro,no activity
same,Anti-proliferative effect in vitro,[5]; leading to cell-cycle arrest at G1,potent anti-proliferative effect
same,Dose recommended for phase II study,"[6]; human, in vivo",200 mg QD
same,Maximum administered dose,"[6]; human, in vivo, po",225 mg QD
same,Maximum tolerated dose (MTD),"[6]; oral, Schedule 2/1 (14 days on, 7 days off)",200 mg QD
